Results published in patent publication US20200115667A1, “VASCULARIZED MICROFLUIDIC PLATFORMS” (BOARD OF REGENTS, THE UNIVERSITY OF TEXAS SYSTEM, priority 2017, published 2020).
Like-named read-outs stand apart in the source and are kept apart here.

Tests used:
[1] = system: TIME monoculture endothelium; test: Porosity of vasculature (vessel confluence, confocal); format: cell-based, human; details: 20 ng/ml perfused 24 hours
Procedure: After embedding cells in collagen and successfully preconditioning endothelialized channels for 72 hours to establish a confluent, aligned endothelium, the effect of different co-culture conditions on the vessel confluence was studied as shown in FIG. 20.
To create a fully functional aligned endothelium along each channel within each compartment, TIME cell suspension in media (10×10^6 cells/ml) was introduced in the channel and underwent flow preconditioning for 3 days. Within the first 36 hours, wall shear stress was maintained at 0.01 dyn/cm^2 and followed with a linear increase of wall shear stress to 0.1 dyn/cm^2 for 1 hour and maintained at this value for the next 36 hours. […] For positive control samples, 20 ng/ml Tumor Necrosis Factor Alpha (TNFα, RnD Systems, MN) was perfused at 0.1 dyn/cm^2 for 24 hours after the preconditioning protocol before transport studies. To provide flow into the microfluidic platform, 0.5″ long 22G stainless steel needles were inserted though PDMS ports and partially into the collagen microchannels. Autoclaved Tygon silicon tubing ( 1/16″ ID, Saint Global, France) was connected to the inlet needle and a bubble trap, which is connected to a syringe pump that controls the flow rate. […]
Therefore, endothelial porosity was determined using fluorescence microscopy images of mKate tagged endothelial cells.

[2] = system: endothelial lumen of C3Asub28/TIME, MDA-MB-231/TIME, THLE-3/TIME microenvironments; test: Vessel permeability of multi tissue-on-a-chip microenvironments; format: cell-based, human; details: TNFα treated TIME monoculture vs TIME monoculture, this study
Procedure: Transport measurements of varying particle sizes in the multi tissue-on-a-chip microenvironment were conducted for two different scenarios: single microenvironment analysis and microenvironments connected in series to investigate the influence of their interactions and interdependent transport kinetics. When considering only a single microenvironment transport, particles were delivered through the vessel of the microenvironment of interest and transport through the vessel and into the surrounding ECM was measured subsequently and spatially. In these tests, 5 different platform configurations was used: acellular with no cells in the ECM and no cells in the vessel, TIME monoculture consisting only endothelial cells lining the vessel without cells in the ECM, and then vascularized microenvironments denoted as cells in the ECM/cells in the vessel: MDA-MB-231/TIME, C3Asub28/TIME, and THLE-3/TIME microenvironments. […]
Therefore, endothelial porosity was determined using fluorescence microscopy images of mKate tagged endothelial cells. […] The effect of vessel and ECM porosities and particle size on transport were quantified using two methods, permeability coefficient and intensity profiles of the particles in the vessel and ECM. […] Obtained images were exported to Matlab to quantify intensity readings at each time step. For the first method, permeability coefficient was calculated using Equation 8

[3] = system: endothelial lumen of C3Asub28/TIME, MDA-MB-231/TIME, THLE-3/TIME microenvironments; details: reported by Zervantonakis et al.; cited from earlier work

## Tumor Necrosis Factor Alpha [TNFα]
[1]
  effect on vessel compared to Control −: caused vessel permeabilization with significant pore openings
[2]
  fold change of permeability between Control − and Control +: 1.59±0.13
[3]
  fold change of permeability between Control − and Control +: 1.79±0.27
